Experimental data published in paper PMC5446775, “Interactions of 172 plant extracts with human organic anion transporter 1 (SLC22A6) and 3 (SLC22A8): a study on herb-drug interactions” (PeerJ, 2017).
Where “and” joins values, the source holds several entries; their conditions need not be identical. Equal entries are not always repeated.

Key:
hOAT1 = biological target: T1, hOAT1 (Homo sapiens, UniProt Q4U2R8); test: Time course and uptake kinetics of 6-CF in HEK-OAT1 cells
T1 sequence (Q4U2R8 1-563): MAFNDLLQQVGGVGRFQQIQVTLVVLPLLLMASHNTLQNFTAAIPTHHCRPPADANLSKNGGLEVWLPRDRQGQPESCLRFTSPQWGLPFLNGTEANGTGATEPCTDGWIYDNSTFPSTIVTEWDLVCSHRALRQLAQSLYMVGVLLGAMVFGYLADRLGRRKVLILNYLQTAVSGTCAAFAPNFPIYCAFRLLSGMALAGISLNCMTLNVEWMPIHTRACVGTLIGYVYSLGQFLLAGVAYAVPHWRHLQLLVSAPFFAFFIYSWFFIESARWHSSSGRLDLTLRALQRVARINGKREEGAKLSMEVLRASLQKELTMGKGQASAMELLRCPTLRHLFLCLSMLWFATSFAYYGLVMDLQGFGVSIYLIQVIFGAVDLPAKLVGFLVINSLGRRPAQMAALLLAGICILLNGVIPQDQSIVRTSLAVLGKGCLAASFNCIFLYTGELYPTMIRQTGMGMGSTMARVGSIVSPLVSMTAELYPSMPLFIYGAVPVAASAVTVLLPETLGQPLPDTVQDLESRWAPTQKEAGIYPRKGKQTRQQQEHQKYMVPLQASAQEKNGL

hOAT3 = biological target: T2, hOAT3 (Homo sapiens, UniProt Q8TCC7); test: Time course and uptake kinetics of 6-CF in HEK-OAT3 cells
T2 sequence (Q8TCC7 1-542): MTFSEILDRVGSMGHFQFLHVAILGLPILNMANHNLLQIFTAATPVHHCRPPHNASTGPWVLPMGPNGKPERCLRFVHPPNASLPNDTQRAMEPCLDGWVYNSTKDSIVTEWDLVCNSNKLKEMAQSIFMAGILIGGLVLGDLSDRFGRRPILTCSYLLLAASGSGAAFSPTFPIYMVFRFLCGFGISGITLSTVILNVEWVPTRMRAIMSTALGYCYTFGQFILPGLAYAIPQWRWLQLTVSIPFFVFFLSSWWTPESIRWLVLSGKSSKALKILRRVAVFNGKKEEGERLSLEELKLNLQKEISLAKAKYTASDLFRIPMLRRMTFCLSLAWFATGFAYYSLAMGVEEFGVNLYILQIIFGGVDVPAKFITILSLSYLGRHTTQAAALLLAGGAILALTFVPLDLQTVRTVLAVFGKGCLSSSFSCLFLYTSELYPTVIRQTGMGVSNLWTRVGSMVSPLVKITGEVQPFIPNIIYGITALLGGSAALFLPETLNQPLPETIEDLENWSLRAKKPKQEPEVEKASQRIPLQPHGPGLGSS

HEK-EV cells = test: Time course of 6-CF uptake in HEK-EV cells; type: cell-based; set-up: unit not given beside the values
[1] = substrate: O=C(O)c1ccc(C(=O)O)c(-c2c3ccc(=O)cc-3oc3cc(O)ccc23)c1; test: cells, lysate or membranes; settings: pH 7.2
[2] = other: HEK-OAT3, 6-CF 0–500 μM, 10 min
[3] = other: HEK-OAT1, 6-CF 0–500 μM, 4 min

With `O=C(O)c1ccc(C(=O)O)c(-c2c3ccc(=O)cc-3oc3cc(O)ccc23)c1` [6-CF, 6-Carboxyfluorescein] the “6-CF uptake, saturation curve (replicates)” value (“6-CF uptake, saturation curve” for short) (hOAT1; HEK-OAT1, 6-CF 0.4882813 uM) was 7.173 and 7.446 and 6.987, the “6-CF uptake, saturation curve” value (hOAT1; HEK-OAT1, 6-CF 0.9765625 uM) was 12.8274 and 13.23 and 13 and the “6-CF uptake, saturation curve” value (hOAT1; HEK-OAT1, 6-CF 1.953125 uM) was 27.87 and 28.3406 and 28.05. For the same molecule, the “6-CF uptake, saturation curve” value (hOAT1; HEK-OAT1, 6-CF 3.90625 uM) was 46.16 and 53.71 and 47.47, the “6-CF uptake, saturation curve” value (hOAT1; HEK-OAT1, 6-CF 7.8125 uM) was 70.1 and 79.19 and 68.4603 and the “6-CF uptake, saturation curve” value (hOAT1; HEK-OAT1, 6-CF 15.625 uM) was 99.74 and 104.681 and 93.41. The “6-CF uptake, saturation curve” value (hOAT1; HEK-OAT1, 6-CF 31.25 uM) was 121.9009 and 125.5377 and 115.7964, the “6-CF uptake, saturation curve” value (hOAT1; HEK-OAT1, 6-CF 62.5 uM) was 137.2491 and 143.8246 and 138.2214 and the “6-CF uptake, saturation curve” value (hOAT1; HEK-OAT1, 6-CF 125 uM) was 148.3736 and 150.9828 and 144.0527. For the same molecule, the “6-CF uptake, saturation curve” value (hOAT1; HEK-OAT1, 6-CF 250 uM) was 164.0673 and 159.2171 and 152.7382, the “6-CF uptake, saturation curve” value (hOAT1; HEK-OAT1, 6-CF 500 uM) was 180.965 and 184.434 and 169.8854 and the “6-CF uptake, time course (replicates)” value (hOAT1; HEK-OAT1, 1 min) was 103.0408 and 111.2811 and 116.9642. The “6-CF uptake, time course (replicates)” value (hOAT1; HEK-OAT1, 2 min) was 184.2101 and 188.6327 and 203.3025, the “6-CF uptake, time course (replicates)” value (hOAT1; HEK-OAT1, 4 min) was 263.4748 and 273.8167 and 274.8526 and the “6-CF uptake, time course (replicates)” value (hOAT1; HEK-OAT1, 6 min) was 366.3584 and 347.2089 and 351.4604. For the same molecule, the “6-CF uptake, time course (replicates)” value (hOAT1; HEK-OAT1, 8 min) was 433.3665 and 398.0952 and 430.7222, the “6-CF uptake, time course (replicates)” value (hOAT1; HEK-OAT1, 10 min) was 468.8556 and 433.6342 and 503.1246 and the “6-CF uptake, time course (replicates)” value (hOAT1; HEK-OAT1, 15 min) was 515.439 and 498.8523. The “6-CF uptake, time course (replicates)” value (hOAT3; HEK-OAT3, 0 min) was -0.2934 and -0.3139 and -0.3557, the “6-CF uptake, saturation curve” value (hOAT3; HEK-OAT3, 6-CF 0.4882813 uM) was 0.3918 and 0.3329 and 0.4388 and the “6-CF uptake, saturation curve” value (hOAT3; HEK-OAT3, 6-CF 0.9765625 uM) was 0.698 and 0.5037 and 0.6877. For the same molecule, the “6-CF uptake, saturation curve” value (hOAT3; HEK-OAT3, 6-CF 1.953125 uM) was 1.795 and 1.575 and 1.458, the “6-CF uptake, saturation curve” value (hOAT3; HEK-OAT3, 6-CF 3.90625 uM) was 4.35 and 4.472 and 4.585 and the “6-CF uptake, saturation curve” value (hOAT3; HEK-OAT3, 6-CF 7.8125 uM) was 6.975 and 7.312 and 7.453. The “6-CF uptake, saturation curve” value (hOAT3; HEK-OAT3, 6-CF 15.625 uM) was 11.68 and 13.8 and 13.42, the “6-CF uptake, saturation curve” value (hOAT3; HEK-OAT3, 6-CF 31.25 uM) was 16.87 and 19.83 and 17.42 and the “6-CF uptake, saturation curve” value (hOAT3; HEK-OAT3, 6-CF 62.5 uM) was 24.87 and 28.11 and 27.05. For the same molecule, the “6-CF uptake, saturation curve” value (hOAT3; HEK-OAT3, 6-CF 125 uM) was 31.12 and 34.21 and 34.22, the “6-CF uptake, saturation curve” value (hOAT3; HEK-OAT3, 6-CF 250 uM) was 38.59 and 48.68 and 49.93 and the “6-CF uptake, saturation curve” value (hOAT3; HEK-OAT3, 6-CF 500 uM) was 59.67 and 68.36 and 60.32. The “6-CF uptake, time course (replicates)” value (hOAT3; HEK-OAT3, 1 min) was 15.96 and 14.63 and 12.89, the “6-CF uptake, time course (replicates)” value (hOAT3; HEK-OAT3, 3 min) was 23.66 and 23.83 and 22.4238 and the “6-CF uptake, time course (replicates)” value (hOAT3; HEK-OAT3, 5 min) was 30.9 and 31.16 and 28.05. The “6-CF uptake, time course (replicates)” value (hOAT3; HEK-OAT3, 7 min) was 39.99 and 36.19 and 41.91, the “6-CF uptake, time course (replicates)” value (hOAT3; HEK-OAT3, 10 min) was 50.24 and 52.458 and 60.541 and the “6-CF uptake, time course (replicates)” value (hOAT3; HEK-OAT3, 15 min) was 52.72 and 56.05 and 66.23. For the same molecule, the “6-CF uptake, time course (replicates)” value (hOAT3; HEK-OAT3, 20 min) was 78 and 76.09 and 111.922, the “6-CF uptake, time course (replicates)” value (HEK-EV cells; EV (run with HEK-OAT3), 0 min) was -0.296 and -0.1638 and -0.3041 and the “6-CF uptake, time course (replicates)” value (HEK-EV cells; EV (run with HEK-OAT3), 1 min) was 0.1864 and 0.1215 and 0.1926. For the same molecule, the “6-CF uptake, time course (replicates)” value (HEK-EV cells; EV (run with HEK-OAT3), 3 min) was 1.062 and 1.738 and 0.6624, the “6-CF uptake, time course (replicates)” value (HEK-EV cells; EV (run with HEK-OAT3), 5 min) was 1.6 and 1.946 and 1.9 and the “6-CF uptake, time course (replicates)” value (HEK-EV cells; EV (run with HEK-OAT3), 7 min) was 3.081 and 4.38 and 4.257. For the same molecule, the “6-CF uptake, time course (replicates)” value (HEK-EV cells; EV (run with HEK-OAT3), 10 min) was 12.29 and 7.712 and 11.67, the “6-CF uptake, time course (replicates)” value (HEK-EV cells; EV (run with HEK-OAT3), 15 min) was 22.75 and 12.81 and 21.0992 and the “6-CF uptake, time course (replicates)” value (HEK-EV cells; EV (run with HEK-OAT3), 20 min) was 40.6 and 70.13 and 42.87. For the same molecule, the “6-CF uptake, time course (replicates)” value (HEK-EV cells; HEK-EV (run with HEK-OAT1), 1 min) was 2.029 and 2.127 and 1.449, the “6-CF uptake, time course (replicates)” value (HEK-EV cells; HEK-EV (run with HEK-OAT1), 2 min) was 3.517 and 2.496 and the “6-CF uptake, time course (replicates)” value (HEK-EV cells; HEK-EV (run with HEK-OAT1), 4 min) was 3.274 and 1.899. For the same molecule, the “6-CF uptake, time course (replicates)” value (HEK-EV cells; HEK-EV (run with HEK-OAT1), 6 min) was 2.9 and 5.179 and 2.231, the “6-CF uptake, time course (replicates)” value (HEK-EV cells; HEK-EV (run with HEK-OAT1), 8 min) was 2.807 and 2.226 and 2.134 and the “6-CF uptake, time course (replicates)” value (HEK-EV cells; HEK-EV (run with HEK-OAT1), 10 min) was 6.849 and 3.392. The “6-CF uptake, time course (replicates)” value (HEK-EV cells; HEK-EV (run with HEK-OAT1), 15 min) was 2.156 and 2.367 and 2.88.

B1: hOAT3 (Homo sapiens) (protein)
chain: MTFSEILDRVGSMGHFQFLHVAILGLPILNMANHNLLQIFTAATPVHHCRPPHNASTGPWVLPMGPNGKPERCLRFVHPPNASLPNDTQRAMEPCLDGWVYNSTKDSIVTEWDLVCNSNKLKEMAQSIFMAGILIGGLVLGDLSDRFGRRPILTCSYLLLAASGSGAAFSPTFPIYMVFRFLCGFGISGITLSTVILNVEWVPTRMRAIMSTALGYCYTFGQFILPGLAYAIPQWRWLQLTVSIPFFVFFLSSWWTPESIRWLVLSGKSSKALKILRRVAVFNGKKEEGERLSLEELKLNLQKEISLAKAKYTASDLFRIPMLRRMTFCLSLAWFATGFAYYSLAMGVEEFGVNLYILQIIFGGVDVPAKFITILSLSYLGRHTTQAAALLLAGGAILALTFVPLDLQTVRTVLAVFGKGCLSSSFSCLFLYTSELYPTVIRQTGMGVSNLWTRVGSMVSPLVKITGEVQPFIPNIIYGITALLGGSAALFLPETLNQPLPETIEDLENWSLRAKKPKQEPEVEKASQRIPLQPHGPGLGSS
For B1, the Km [1, 2] was 112.9 ± 14.24 µM and the Vmax [1, 2] was 71.89 ± 3.42 pmol/mg protein/min.

B2: hOAT1 (Homo sapiens) (protein)
chain: MAFNDLLQQVGGVGRFQQIQVTLVVLPLLLMASHNTLQNFTAAIPTHHCRPPADANLSKNGGLEVWLPRDRQGQPESCLRFTSPQWGLPFLNGTEANGTGATEPCTDGWIYDNSTFPSTIVTEWDLVCSHRALRQLAQSLYMVGVLLGAMVFGYLADRLGRRKVLILNYLQTAVSGTCAAFAPNFPIYCAFRLLSGMALAGISLNCMTLNVEWMPIHTRACVGTLIGYVYSLGQFLLAGVAYAVPHWRHLQLLVSAPFFAFFIYSWFFIESARWHSSSGRLDLTLRALQRVARINGKREEGAKLSMEVLRASLQKELTMGKGQASAMELLRCPTLRHLFLCLSMLWFATSFAYYGLVMDLQGFGVSIYLIQVIFGAVDLPAKLVGFLVINSLGRRPAQMAALLLAGICILLNGVIPQDQSIVRTSLAVLGKGCLAASFNCIFLYTGELYPTMIRQTGMGMGSTMARVGSIVSPLVSMTAELYPSMPLFIYGAVPVAASAVTVLLPETLGQPLPDTVQDLESRWAPTQKEAGIYPRKGKQTRQQQEHQKYMVPLQASAQEKNGL
Molecule B2 has a Km [1, 3] of 10.86 ± 0.64 µM and a Vmax [1, 3] of 168.5 ± 2.27 pmol/mg protein/min.
